Here are results for one compound from patent US11819488B2, “Nanosuspensions of salsalate and methods of using the same” (RHNanoPharma, priority 2018, dated 2023).

SMILES strings stand for the structures.

The nature of data set [1]: Particle size analysis, Horiba light scattering; oral excipient screen (Example 1). Format: physicochemical. Particulars: unmilled aqueous suspension of 5% salsalate, FIG. 1B. The method, then:
The pH of salsalate in water was slightly below 4, so no pH adjustment was attempted. The samples were analyzed using Horiba light scattering particle size distributions (PSD). One of several acceptable formulations was selected to scale up to a higher concentration of API using high speed media milling. […] Eight different aqueous nanosuspensions of salsalate, with differing surfactants or combinations of surfactants, were prepared and analyzed for particle size. The first 7 formulations were made by roller milling with a Roller-Mill RM20 (ZOZ GmbH) with YTZ-800 grinding media (Tosoh Corp.) at 192 rpm. The 8th formulation was made via high speed media milling (5000 rpm). The particle sizes of the resultant compositions were then analyzed using a Horiba light scattering particle size analyzer. The compositions and results of the particle size analyses are shown below in Table 2 and in FIGS. 2A, 2B, 3A, 3B etc. through 9A and 9B.

A short description of the next data set: pH of salsalate in water. Format: physicochemical. Here is the method:
The pH of salsalate in water was slightly below 4, so no pH adjustment was attempted. The samples were analyzed using Horiba light scattering particle size distributions (PSD). One of several acceptable formulations was selected to scale up to a higher concentration of API using high speed media milling.

For data set [2] the following is noted: in terms of salicylic acid equivalents; cited from earlier work.
For data set [3] the following is noted: studies of 3 weeks or more in duration; cited from earlier work.
The conditions of data set [4]: non-nano salsalate 3.0, 3.5, 4.0 g/d vs placebo, type two diabetes, P=0.003, FIG. 28A; cited from earlier work.

Consider `O=C(Oc1ccccc1C(=O)O)c1ccccc1O` [salsalate, 2-hydroxybenzoyloxy benzoic acid], for which, in data set [1], the D90 particle size is 435 μm, the mean particle size was found to be 244 μm and the median particle size is listed as 222.24 μm. The “pH of salsalate in water” value in the data set “pH of salsalate in water” was “below 4”. The “salicylic acid obtained relative to an equivalent dose of aspirin, based on relative AUC values” in data set [2] is on record as “approximately 84%”. In addition, the “study withdrawal from the salsalate group for any reason” value in data set [3] is recorded as 17-38%. Moreover, in data set [4], the “HbAlc level over time, F test for the overall effect of treatment group” value is “significant”.
